Series [1] in a line: Body weight change of tumor bearing mice (toxic effects). In kind it is in vivo, B6C3F1 hybrid female mice. As to conditions: 5-Fluorouracil 98 mg/kg, i.p., qd (1, 7, 14, 21). The source says:
(§1) Anticancer activities of T4GEN and n-T4GEN were studied in animals bearing subcutaneous transplants of C3H Mammary adenocarcinoma 16/C. This tumor is maintained as a lung passed tumor in C3H female mice. In this example, tumors (1×10^6 cells) were transplanted (S.C.) in 18-20 g B6C3F1 hybrid female mice. On the following day, the tumor bearing animals were randomized and separated into different treatment groups (10 mice per group). There were 15 animals in the control group who received only physiological saline during the treatment periods. The treatments (i.p.) were started 48 hours after the transplants and given for a duration of 14 days (daily single injections). Animals were weighed on days 5, 9 and 14 to assess toxic effects. Tumors were measured on days 21, 28 post transplants and the results are represented as tumor weights using formula [formula]

Series [2] relates to C3H Mammary adenocarcinoma 16/C. The series can be described thus: Growth of subcutaneous transplants of C3H mammary adenocarcinoma 16/C in mice. Conditions: 5-Fluorouracil 98 mg/kg, i.p., qd (1, 7, 14, 21). It counts as in vivo, B6C3F1 hybrid female mice.
Description: as §1, with “The treatments (i.p.) were started 48 hours after the transplants and given for a duration of 14 days (daily single injections).” left out
(I=length of tumor, w=width of tumor expressed in mm).

Turning to `O=c1[nH]cc(F)c(=O)[nH]1` [5-Fluorouracil], in series [1], the “ΔWts (g) (day 14)” value is “+1.77 g”. In series [2], the “Tumor Free Animals (day 93)” value was 0/6 and the “Tumor Wts (day 21)” value turned out to be 0.00. Also, in series [2] (day 21), the “Tumor Weight Inhibition %” value is reported as 100%.

For the origin of these results see patent US6379714B1, “Pharmaceutical grade botanical drugs” (priority 1995, dated 2002).
